Assay results: patent US20150031056A1, “DEVELOPMENT OF SPECIFIC IMMUNOASSAY CRITICAL REAGENTS FOR PHARMACOKINETIC ASSESSMENTS OF PEPTIDE POLYMERS IN PRECLINICAL AND CLINICAL MATRICES” (priority 2011, published 2015)
“And” between values parts separate entries of the source, which are not always exact repeats. Equal entries are not always repeated.

Assay: Pilot PK study in Sprague Dawley rats (serum Copaxone by ELISA)
Type: in vivo
Conditions: Copaxone 20 mg/kg B.wt
Method: A series of serum samples, each containing Copaxone spiked at known concentration and forming a set of calibrator standards to generate a calibration curve to quantify Copaxone in the serum samples of the given species was made in the serum with Copaxone at levels […], 30000 ng/ml, 4000 ng/ml, 2000 ng/ml, 1000 ng/ml, 500 ng/ml, 250 ng/ml, 125 ng/ml, 62.5 ng/ml, 31.3 ng/ml, 7.8 ng/ml and 3.9 ng/ml in neat serum.
ELISA plate is precoated with Polyclonal Rabbit Anti Copaxone antibodies and the appropriately diluted serum samples constituting the calibrator standards and samples for analysis were incubated for binding to the coated Anti Copaxone antibodies and unbound and poorly bound serum components were separated during washing with PBST (Phosphate buffered saline with 0.1% tween 20).The bound Copaxone was detected using biotin labeled Polyclonal Rabbit Anti Copaxone antibodies and streptavidin Alkaline phosphatase conjugate. Substrate was added to the wells and the blue colored signal obtained at 640 nm for the test samples is compared with the calibration curve prepared from concentration-response relationship of the calibrators to determine the unknown concentration of Copaxone in the serum samples.
Three male Sprague Dawley rats were dosed with Copaxone at 20 mg per kg body weight with a dosing volume of […] at the dose concentration of 20mg/ml per day. The dosage was selected based on minimum feasible dose (based on dose volume of 1 ml per kg) for the given strength of 20 mg/ml. Each animal was weighed and dosed with Copaxone @ 20 mg/kg B.wt. Blood samples were collected in 10 μl of Protease inhibitor from each animal at the time point 5 min, 10 min, 15 min, 20 min, 30 min, 45 min, 1, 2, 3, 4, 6, 10 and 24 hours. The blood samples were stored on wet ice for serum separation. The serum was separated and stored at −80° C. till the shipment. The samples till 24 hours were shipped in Dry Ice […].

[1] = Mean of three male Sprague Dawley rats
[2] = individual male Sprague Dawley rat (Rat 1, 2, 3)

AUC0-inf [1]: 25507 ng·min/mL | AUC0-t [1]: 25211.81 ng·min/mL | AUC % Extrap_obs (Should be < 5%) [1]: 1.24% | Cmax [1]: 1.82412 µg/mL | T1/2 [1]: 27.45 min | Tmax [1]: 11.67 min | AUC % Extrap_obs (Should be < 5%) [2]: 0.63% and 1.87% and 1.22% | Tmax [2]: 15 min and 10 min | T1/2 (individual male Sprague Dawley rat (Rat 1, 2, 3), samples 5 min to 24 hours): 31.18 min and 23.39 min and 27.79 min
Substance: Glatiramer acetate [Copaxone]
AUC0-inf [2]: 25654.06 ng·min/mL and 15705.6 ng·min/mL and 35161.34 ng·min/mL | AUC0-t [2]: 25491.53 ng·min/mL and 15411.63 ng·min/mL and 34732.28 ng·min/mL | Cmax [2]: 0.96869 µg/mL and 0.51079 µg/mL and 3.99288 µg/mL
